What all share (assay type): cell-based
Test [1] deals with Herpes simplex virus type 1 (HSV-1). Nature of the test: Antiviral activity against HSV-1, viral plaque reduction (ED50). As to conditions: FIG. 13; HSV-1 KOS and 76, Vero, 20 PFU.
Test [2] shares this test system. The test is described as above. The settings on record: for reversal of antiviral activity of MMdCyd, order of potency: FIGS. 4 to 6. Here is the method:
(§1) Infected cells were treated with different concentrations of MMdCyd and the concentration required to reduce viral plaque formation by 50%, i.e. ED50, was determined.
(§2) ^a ED50 : Concentration required to reduce viral plaque formatio
Vero cells were infected with the KOS strain of HSV-1. The compound of compounds indicated in Table 2, below, and are shown graphically in FIGS. 1, (H4 dUrd) and 2 (H4 Urd).
^a Antiviral assays were carried out using Vero cells. All compounds
were added immediately after virus infection.
(§3) The antiviral activity of MMdCyd in the presence of H4 dUrd was determined against several strains of HSV-1 and HSV-2.
Vero cells were infected with HSV-1, strain 76 and treated with MMdCyd at different times post virus infection.
The antiviral activity, ^a cyctotoxicity* and antiviral indices of MMdCyd in the presence of H4 dUrd, dGuo and H4 dUrd+dGuo were determined.
^a Antiviral assays were carried out using Vero cells. Compounds were
added immediately after virus infection. Virus HSV1, strains KOS and 76;
KOS, virus input = 50 PFU

In test [3] the test system is Herpes simplex virus type 2 (HSV-2). Nature of the test: Antiviral activity against HSV-2, viral plaque reduction (ED50). The settings on record: HSV-2. Here is the method:
as §1, §2, §3
^a Antiviral assays were carried out using Vero cells. Virus input 50
^b ED50 : Concentration required to reduce viral plaque formatio

In test [4] the test system is Deoxynucleoside Triphosphate (dNTP) Pools in Vero Cells Infected with Herpes Simplex Virus Type 1. Nature of the test: Deoxynucleoside triphosphate (dNTP) pools in HSV-1 infected Vero cells. As to conditions: Table 16, HSV-1 KOS infected Vero, treatment 7 hours, ± S.E. On the procedure: Example 9 was repeated, except that the Vero cells subjected to the treatment had all been infected with HSV-1 KOS strain prior to the treatment.
^a Cells were infected with 10 PFU/cell of HSV1 KOS strain for one
hour. Treatments were given for seven hours.
^a Cells were infected with 10 PFU/cell of HSV1, KOS strain after
^b H4 dUrd in MEM was added immediately after adsorption and
^c H4 dUrd in MEM was added immediately after adsorption and
(§4) Vero cells and HSV-infected Vero cells were treated with dGUO and dGUO and H4 dUrd. The cells were then assayed for the presence of deoxynucleoside triphosphates. Untreated Vero cells were also assayed for the presence of deoxynucleoside triphophate to provide a control.
^c Cells were infected with 10 PFU/cell of HSV1 strain KOS for one

Test [5] has as its system Deoxynucleoside Triphosphate (dNTP) Pools in Uninfected Vero Cells. Nature of the test: Deoxynucleoside triphosphate (dNTP) pools in uninfected (mock-infected) Vero cells. On the procedure: Vero cells were treated with MMdCyd, H4 dUrd and MMdCyd+H4 dUrd. The cells were then assayed for the presence of deoxynucleoside triphosphates. Untreated Vero cells were also assayed for the presence of deoxynucleoside triphosphates, to provide a control.
^a Cells were mock infected for one hour. Different treatments were
^b Values are means of at least two assays of triplicate cell
as §4
Vero cells were treated with N-methyl-MMdCyd. The cells were then assayed for dNTP pools.

The mark [6] stands for this setting: Table 16, uninfected Vero, treatment 7 hours, ± S.E.

As usually defined, the EC50 is the concentration giving half of the maximal effect. Read a low EC50 as greater potency.

Consider `Nc1ncnc2c1ncn2[C@H]1C[C@H](O)[C@@H](CO)O1` [Deoxyadenosine, reference compound], for which the “effect on antiviral activity of MMdCyd” value in test [1] is “no effect on antiherpes activity of MMdCyd”.
Take `COCc1cn([C@H]2C[C@H](OC(C)=O)[C@@H](COC(C)=O)O2)c(=O)nc1N` [Di-AC-MMdCyd, 5-methoxymethyl-3',5'-diacetyl-2'-deoxycytidine]: it took 535 µM to reach a half-maximal effect in test [2] (EC50). In addition, the “potency against HSV-1 relative to parent compound (times lower)” value in test [2] (vs MMdCyd, cell culture) is reported as “approximately 20 times”.
`O=C1NC(O)CCN1[C@@H]1O[C@H](CO)[C@@H](O)[C@H]1O` (stereo partly drawn) [H4 Urd, tetrahydrouridine, reference compound]: the “potentiation of the activity of MMdCyd (fold)” value in test [2] (H4 Urd with MMdCyd) is reported as “approximately 2 fold”.
Regarding `COCc1cn([C@H]2C[C@H](O)[C@@H](COP(=O)(O)O)O2)c(=O)nc1N` [MMdCMP, 5-methoxymethyl-2'-deoxycytidine monophosphate], the EC50 in test [2] was 10 to 14 µM. Besides, the antiviral activity result in test [2] (HSV-1) is given as “potent inhibitor of HSV-1”.
Compound `Cc1cn([C@H]2C[C@H](O)[C@@H](CO)O2)c(=O)nc1N` [MedCyd, 5-methyl-2'-deoxycytidine, reference compound] gave an EC50 in test [2] greater than 530 µM. Besides, the antiviral activity entry in test [2] (up to 128 μg/ml, HSV-1) is given as “devoid of activity”.
`CNc1nc(=O)n([C@H]2C[C@H](O)[C@@H](COP(=O)(O)O)O2)cc1COC` [N-Me-MMdCMP, 5-Methoxymethyl-N^4-methyl-2'-deoxycytidine-5'-monophosphate] yielded an EC50 in test [2] greater than 1800 µM. Also, the antiviral activity result in test [2] (HSV-1) and in test [3] was “completely inert” throughout.
On to `CNc1nc(=O)n([C@H]2C[C@H](O)[C@@H](CO)O2)cc1COC` [N-Me-MMdCyd, 5-methoxymethyl-N4-methyl-2'-deoxycytidine], for which, in test [2], the EC50 was greater than 1800 µM. The antiherpes activity result in test [2] (summary statement) is “completely devoid of antiherpes activity”. In addition, the antiviral activity entry in test [2] (up to 1796 μM) is on record as “devoid of antiviral activity”. Also, in test [4], the dATP pool was 7.4 ± 0.4 .rho. moles/10^6 cells, the dCTP pool is reported as 18 ± 1.08 .rho. moles/10^6 cells, the dGTP pool is reported as 58.9 ± 2.22 .rho. moles/10^6 cells and the dTTP pool is 419 ± 10.6 .rho. moles/10^6 cells. In addition, in test [5] (setting [6]), the dATP pool is 32.2 ± 2.5 .rho. moles/10^6 cells, the dCTP pool is 17.3 ± 1.32 .rho. moles/10^6 cells, the dGTP pool is on record as 36.3 ± 1.67 .rho. moles/10^6 cells and the dTTP pool is listed as 38.6 ± 1.22 .rho. moles/10^6 cells. The “effect on dNTP pools” value in test [5] (Vero cells) is “did not cause perturbation of dNTP pools to any significant degree”.
For `Nc1ccn([C@H]2C[C@H](O)[C@@H](CO)O2)c(=O)n1` [deoxycytidine, 2'-deoxycytidine, reference compound], the “reversal of antiviral activity of MMdCyd, order of potency” value (“reversal of antiviral activity of MMdCyd” below) in test [2] is “deoxythymidine>deoxyuridine>deoxycytidine”. In addition, the “effect on dose-response curve of MMdCyd” value in test [2] (equimolar concentrations, FIG. 5) is “parallel upward shift”.
With `Cc1cn([C@H]2C[C@H](O)[C@@H](CO)O2)c(=O)[nH]c1=O` [deoxythymidine, 2'-deoxyribosylthymidine (thymidine), reference compound], the “reversal of antiviral activity of MMdCyd” value in test [2] is “deoxythymidine>deoxyuridine>deoxycytidine”.
Take `O=c1ccn([C@H]2C[C@H](O)[C@@H](CO)O2)c(=O)[nH]1` [deoxyuridine, 2'-deoxyuridine, reference compound]: the “reversal of antiviral activity of MMdCyd” value in test [2] is “deoxythymidine>deoxyuridine>deoxycytidine”.

The record behind these values is US4990499A, “Anti-herpes simplex virus activity of 5-alkoxymethyl-2'-deoxycytidimes and their 5-monophosphates” (priority 1989, dated 1991).
